Measured values: patent US11841369B2, “Method for improving quality of therapeutic cell through real-time glutathione measurement” (CELL2IN, INC., priority 2017, dated 2023)

Tests used:
[1] = tested on: human dermal fibroblasts; assay: mGSH distribution after RSL3 in human dermal fibroblasts, confocal imaging; format: cell-based; conditions: as the subculture continued
Experimental: As described in the experiment for MSCs, human dermal fibroblasts subcultured several times were treated with RSL3 and the cells were stained with MitoFreSH-Tracer, and a ratio between cells maintaining mGSH and cells not maintaining mGSH was represented as a percentage through confocal imaging.

[2] = tested on: hUC-MSCs; assay: Mitochondrial GSH (mGSH) distribution after RSL3, MitoFreSH-Tracer, flow cytometry and confocal imaging; format: cell-based, human
Experimental: After the cultured human umbilical cord-derived mesenchymal stem cells (hUC-MSCs) at passage 4, 7 or 15 were treated with various concentrations of RSL3 and stained with MitoFreSH, the distribution pattern of mitochondrial GSH (mGSH) in the cells was confirmed by histograms using flow cytometry and confocal imaging.
hUC-MSCs at passage 4, 7 or 15 were prepared, seeded at 70000 cells/well in a 6-well cell culture plate, and cultured at 37° C. for 24 hours. The medium used in the culture was prepared by adding 10% fetal bovine serum and 1× penicillin-streptomycin to α-MEM. […] The cells detached from the plate were transferred to an FACS tube and stored on ice, and a fluorescence level was measured using a flow cytometer.
hUC-MSCs at passage 4, 7 or 15 were prepared, seeded at 7000 cells/100 μl per well in a 96-well cell culture plate, and cultured at 37° C. for 24 hours. […] To remove MitoFreSH-Tracer from the medium before measurement, the medium was exchanged with fresh 10 mM HEPES-containing HBSS, and fluorescence images were measured using a confocal imaging system, Operetta.
A F510/F580 ratio referring to a GSH mean value in cells was calculated by measuring fluorescence values of F510 (fluorescence value when MitoFreSH-Tracer was bound with SH) and F580 (fluorescence value of MitoFreSH-Tracer, which was not bound with SH) in cells and dividing the F510 value by the F580 value. […]

[3] = tested on: hUC-MSCs; assay: CD146 surface expression in mGSH^High and mGSH^Low cells after RSL3, flow cytometry; format: cell-based, human; conditions: P4 hUC-MSC, compared with mGSH level-maintaining group
Source text: To confirm whether the stem cell function of cells in which an mGSH level decreased is deteriorated under lipid oxidative stress caused by RSL3 treatment, an expression level of CD146, which is a cell surface protein known to be highly expressed in stem cells of high quality according to conventional literature, was confirmed through flow cytometry.
The cells were stained by the same method as a method of measuring a mitochondria GSH level through the flow cytometry as described above, and detached from the plate using trypsin. The detached cells were treated with an antibody for flow cytometry with respect to CD146 to which a fluorescent material BUV395 was bound at 4° C. for 30 minutes, and washed with PBS. Using a flow cytometer, F510 and F580 fluorescence values for measuring a GSH level and a BUV395 fluorescence value for measuring CD146 expression were measured. Afterward, based on the point at which the histogram showing the F510/F580 distribution was divided into two peaks, the cells were divided into GSH^High cells (right peak) and GSH^Low cells (left peak) using FlowJo software, and a CD146-positive ratio of the corresponding cells is represented as a percentage (%).

[4] = tested on: T cells; assay: Anti-inflammatory effect of treated hUC-MSCs: T cell proliferation, T cell differentiation, Treg cell differentiation; format: cell-based
Experimental: The inventors observed an effect of the material on stem cells by treating each stem cells with a material for enhancing a glutathione evaluation parameter. When hUC-MSCs were subcultured in a L-AA2G-containing medium, CFU-F, migration capacity, and an anti-inflammatory effect were observed. A CFU-F assay (n=3) was performed by treating hUC-MSCs with 125 or 250 μg/mL of AA2G for three days. As shown in FIGS. 16A and 16B, it was confirmed that, when AA2G was treated, CFU-F increased. In addition, as hUC-MSCs were treated with 125 or 250 μg/mL of AA2G for three days, PDGF-AA-induced migration capacity (n=3) was analyzed. As shown in FIGS. 17A and 17B, it was confirmed that the migration capacity was increased by AA2G treatment. In addition, the reduction in T cell proliferation, a reduction in T cell differentiation, and the promotion of Treg cell differentiation were observed by treating hUC-MSCs with 125 or 250 μg/mL of AA2G for three days.
In addition, hUC-MSCs were cultured with ferrostatin-1 (0.2, 1, 2 and 4 μM) and liproxstatin-1 (0.1, 0.5, 1 and 2 μM), which control a glutathione level in cells by inhibiting lipid oxidation. […] Meanwhile, the hUC-MSCs were treated with 1 μM ferrostatin-1 for 24 hours, 0.2 mM GGC for 2 hours, and 2 mM GSH-EE for 2 hours. As a result, the reduction in T cell proliferation ability and the reduction in T cell differentiation capacity were observed, and promotion of Treg cell differentiation was observed.

[5] = tested on: hUC-MSCs; assay: CFU-F assay of hUC-MSCs; format: cell-based, human; conditions: ferrostatin-1 0.2, 1, 2, 4 μM or liproxstatin-1 0.1, 0.5, 1, 2 μM, 24 hours
Experimental: The inventors observed an effect of the material on stem cells by treating each stem cells with a material for enhancing a glutathione evaluation parameter. When hUC-MSCs were subcultured in a L-AA2G-containing medium, CFU-F, migration capacity, and an anti-inflammatory effect were observed. A CFU-F assay (n=3) was performed by treating hUC-MSCs with 125 or 250 μg/mL of AA2G for three days. As shown in FIGS. 16A and 16B, it was confirmed that, when AA2G was treated, CFU-F increased. In addition, as hUC-MSCs were treated with 125 or 250 μg/mL of AA2G for three days, PDGF-AA-induced migration capacity (n=3) was analyzed. As shown in FIGS. 17A and 17B, it was confirmed that the migration capacity was increased by AA2G treatment. In addition, the reduction in T cell proliferation, a reduction in T cell differentiation, and the promotion of Treg cell differentiation were observed by treating hUC-MSCs with 125 or 250 μg/mL of AA2G for three days. […] Meanwhile, hUC-MSCs were cultured with a glutathione precursor such as γ-glutamyl cysteine (GGC, 0.1, 0.25, and 0.5 mM). A CFU-F assay (n=3) was performed by treating hUC-MSCs with each concentration of GGC for 2 hours. […] In addition, SDF1α and PDGF-AA-induced migration capacities (n=3) were analyzed for hUC-MSCs without treatment with GGC, and SDF1α- and PDGF-AA-induced migration abilities (n=3) were analyzed by treating hUC-MSCs with the increasing concentrations of GGC. STI571 was used as a PDGFR kinase inhibitor. As shown in FIGS. 20A to 20C, it was confirmed that, according to an increase in GGC treatment concentration, SDF1α- and PDGF-AA-induced migration capacities were enhanced. A CFU-F assay (n=3) was performed by treating hUC-MSCs with 0.2, 1, 2, and 4 μM ferrostatin-1 and 0.1, 0.5, 1, and 2 μM liproxstatin-1 for 24 hours.

[6] = hUC-MSCs treated with 1 μM ferrostatin-1 24 h, 0.2 mM GGC 2 h or 2 mM GSH-EE 2 h

SMILES	proportion of cells in which mGSH decreases by treatment with RSL3 [1]	mGSH levels ([2]; hUC-MSCs passage 4, 7 or 15, RSL3 0.1/0.5/1 μM, dependent on RSL3 concentration and passage number)	lowering of CD146-positive ratio in group in which mGSH level is lowered by RSL3 [3]	anti-inflammatory effect of the hUC-MSCs ([4]; ferrostatin-1 or liproxstatin-1 treatment (FIGS. 27, 28A to 28C))	T cell differentiation capacity [4, 6]	T cell proliferation ability [4, 6]	Treg cell differentiation [4, 6]	effect of RSL3 on mGSH upon Ferrostatin-1 treatment ([2]; hUC-MSCs treated with RSL3 (FIG. 33))	CFU-F [5]
COC(=O)c1ccc([C@@H]2c3[nH]c4ccccc4c3C[C@@H](C(=O)OC)N2C(=O)CCl)cc1 [RSL3, 1S,3R-RAS-selective lethal 3]	increased	reduced	approximately 25%	–	–	–	–	–	–
CCOC(=O)c1ccc(NC2CCCCC2)c(N)c1 [ferrostatin-1]	–	–	–	did not alter	reduction	reduction	promotion	disappeared	improved
